The source of these data is US20250084091A1, “INHIBITORS OF SARS-COV-2” (The Texas A&M University System, priority 2021, published 2025).

The target in series [1] is SARS-CoV-2 main protease (Mpro) (Severe acute respiratory syndrome coronavirus 2, UniProt P0DTD1). Put plainly: biochemical.
The test system of series [2] is SARS-CoV-2 (strain USA-WA1/2020). Put plainly: microbe, parasite or virus in culture. It is filed as cell-based.
Series [3] is described as follows: Uninfected host cell cytotoxicity counter screen. The series is classed as cell-based. The following applies: human. In outline: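 HeLa-ACE2 cells, uninfected, seeded at 400 cells/well with compounds and held 24 hours at 37° C., 5% CO2. Dead cells stained with Image-iT DEAD green, fixed in 4% paraformaldehyde, DAPI-counterstained and imaged. Data normalized to DMSO and 40 μM puromycin controls; concentration responses in triplicate.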
(In general: Counterscreens check selectivity or assay interference.)

In series [4] the test system is CoV-2 in Vero cells. Put plainly: CoV-2 Vero antiviral assay. The series is classed as cell-based, SARS-CoV-2. The conditions noted are these: Severe acute respiratory syndrome coronavirus 2, Vero, read-out: CoV-2 Vero EC50/100.
Series [5] relates to HeLa-ACE2 cells. Put plainly: cells. The series is classed as cell-based. The conditions noted are these: Table 2, total cell count in infected plates.
The mark [6] stands for this setting: Severe acute respiratory syndrome coronavirus 2, Table 2, SARS-CoV-2 infected HeLa-ACE2 cells, read-out: CoV-2 HeLa EC50.
Where [7] appears, read: Severe acute respiratory syndrome coronavirus 2, HeLa-ACE2, read-out: CoV-2 HeLa EC50, Table 2, SARS-CoV-2 infected HeLa-ACE2 cells.
Where [8] appears, read: Table 2, uninfected cells, 24 hours, read-out: Uninfected HeLa-ACE2 CC50.
Where [9] appears, read: Table 3, select example compounds against mpro, read-out: Enzyme IC50.
The mark [10] stands for this setting: Severe acute respiratory syndrome coronavirus 2, HeLa, Table 3, read-out: CoV-2 HeLa EC50.

Molecules are shown by their SMILES. ≈ marks a conversion by molar mass, not a printed value. Read-outs that look alike come from different tables or passages of the source.

As for `Nc1cncc(C(=O)N2CCN(C3c4ccccc4CCc4ccccc43)CC2)c1` [ZS-342, (5-amino-3-pyridyl)-[4-(2-tricyclo[9.4.0.03,8]pentadeca-1(11),3(8),4,6,12,14-hexaenyl)piperazin-1-yl]methanone], the IC50 – broadly, the concentration that inhibits the measured activity by half – in series [1] (Table 2, read-out: Enzyme IC50) was found to be 150 nM. The EC50 in series [2] (setting [6]) amounted to 406 nM; in series [4], 5 µg/mL (≈ 12.5 µM); in series [5] it was 1180 nM. Moreover, the 50% cytotoxic concentration (CC50) (as a rule, the concentration at which the toxic effect on the cells reaches its halfway point) at 24 h in series [3] was over 39800 nM.
The corresponding values for `O=C(c1cncc(Br)c1)N1CCN(C2c3ccccc3C=Cc3ccccc32)CC1` [NZ-773, (5-bromo-3-pyridyl)-[4-(2-tricyclo[9.4.0.03,8]pentadeca-1(11),3(8),4,6,9,12,14-heptaenyl)piperazin-1-yl]methanone] are 100 nM, 700 nM, 20 µg/mL (≈ 43.4 µM), over 9610 nM and over 39800 nM.
On to `Cc1cncc(C(=O)N2CCC(=C(c3ccccc3)c3ccccc3)CC2)c1` [NZ-783, 3-[4-(diphenylmethylidene)piperidine-1-carbonyl]-5-methylpyridine], for which, in series [1] (Table 2, read-out: Enzyme IC50), the IC50 stood at 85 nM. Moreover, the figures for the EC50 in series [2] (setting [6]), in series [4] and in series [5] were 570 nM, 10 µg/mL (≈ 27.1 µM) and over 9610 nM, respectively. In series [3], the CC50 at 24 h amounted to 25600 nM.
The corresponding values for `Cc1cncc(C(=O)N2CCC(=C3c4ccccc4CSc4ccccc43)CC2)c1` [NZ-794, [4-(6H-benzo[c][1]benzothiepin-11-ylidene)-1-piperidyl]-(5-methyl-3-pyridyl)methanone] are 60 nM, 155 nM, 2.5 µg/mL (≈ 6.06 µM), 345 nM and 39200 nM.
On the same counts, the results for `Cc1cncc(C(=O)N2CCC(C(O)(c3ccccc3)c3ccccc3)CC2)c1` [NZ-782, [1-(5-methylpyridine-3-carbonyl)piperidin-4-yl]diphenylmethanol] are 230 nM, 570 nM, 5 µg/mL (≈ 12.9 µM), over 9610 nM and over 39800 nM.
On the same counts, the results for `Cc1cncc(C(=O)N2CCC(=C3c4ccccc4CCc4ccccc43)CC2)c1` [ZS-336, (5-methyl-3-pyridyl)-[4-(2-tricyclo[9.4.0.03,8]pentadeca-1(11),3(8),4,6,12,14-hexaenylidene)-1-piperidyl]methanone] are 54 nM, 252 nM, 2.5 µg/mL (≈ 6.34 µM), 314 nM and 31500 nM.
In the case of `Cc1cncc(C(=O)N2CCN(C3c4ccccc4CCc4ccccc43)CC2)c1` [ZS-329, (5-methyl-3-pyridyl)-[4-(2-tricyclo[9.4.0.03,8]pentadeca-1(11),3(8),4,6,12,14-hexaenyl)piperazin-1-yl]methanone], in series [1] (Table 2, read-out: Enzyme IC50), the 50% inhibitory concentration (IC50) was found to be 89 nM. For the same compound, the results for the EC50 in series [2] (setting [6]), in series [4] and in series [5] were 330 nM, 5 µg/mL (≈ 12.6 µM) and over 9610 nM, respectively. The compound also showed a half-maximal cytotoxic concentration (CC50) at 24 h in series [3] of 21300 nM.
The corresponding values for `Cc1cncc(C(=O)N2CCC(C(c3ccccc3)c3ccccc3)CC2)c1` [NZ-786, 3-[4-(diphenylmethyl)piperidine-1-carbonyl]-5-methylpyridine] are 170 nM, 570 nM, 10 µg/mL (≈ 27 µM), over 9610 nM and 28500 nM.
For `Cc1cncc(C(=O)N2CC3CCC(C2)N3C(c2ccccc2)c2ccccc2)c1` [AA-604, (8-benzhydryl-3,8-diazabicyclo[3.2.1]octan-3-yl)(5-methylpyridin-3-yl)methanone], it took 81 nM to reach half-maximal inhibition in series [1] (Enzyme IC50, Table 2) (IC50). For the same compound, the EC50 in series [2] (setting [7]) was 240 nM; in series [4] it was 5 µg/mL (≈ 12.6 µM); in series [5], over 9610 nM. Also, the half-maximal cytotoxic concentration (CC50) at 24 h in series [3] (setting [8]) is over 39800 nM.
In the case of `O=C(c1cncc(Br)c1)N1CCN(C2c3ccccc3CCc3ccccc32)CC1` [ZS-316, (5-bromo-3-pyridyl)-[4-(2-tricyclo[9.4.0.03,8]pentadeca-1(11),3(8),4,6,12,14-hexaenyl)piperazin-1-yl]methanone], the IC50 in series [1] (Table 2, read-out: Enzyme IC50) came out at 140 nM. Also, the figures for the EC50 in series [2] (setting [6]), in series [4] and in series [5] were 700 nM, 2.5 µg/mL (≈ 5.41 µM) and over 9610 nM, respectively. In series [3], this compound registered a CC50 at 24 h of over 39800 nM.
Take `O=C(c1cncc(Br)c1)N1CCN(C(c2ccccc2)c2ccccc2)CC1` [AA-551, (4-benzhydrylpiperazin-1-yl)(5-bromopyridin-3-yl)methanone]: the half-maximal inhibitory concentration (IC50) in series [1] (Table 2, read-out: Enzyme IC50) is 220 nM. For the same compound, the EC50 in series [2] (setting [6]) is 820 nM; in series [4], 2.5 µg/mL (≈ 5.73 µM); in series [5], over 9610 nM. The compound further came in with a CC50 at 24 h in series [3] of over 39800 nM.
On the same counts, the results for `O=C(c1cncc(Br)c1)N1CCN(C2c3ccccc3COc3ccccc32)CC1` (centres unmarked) [NZ-776, (5-bromo-3-pyridyl)-[4-(6,11-dihydrobenzo[c][1]benzoxepin-11-yl)piperazin-1-yl]methanone] are 140 nM, 480 nM, 2.5 µg/mL (≈ 5.38 µM), over 9610 nM and over 39800 nM.
The corresponding values for `O=C(c1cncc(Br)c1)N1CCN(C2c3ccccc3CSc3ccccc32)CC1` (centres unmarked) [NZ-774, (5-bromo-3-pyridyl)-[4-(6,11-dihydrobenzo[c][1]benzothiepin-11-yl)piperazin-1-yl]methanone] are 130 nM, 630 nM, 5 µg/mL (≈ 10.4 µM), over 9610 nM and over 39800 nM.
With `CC(=O)Nc1cncc(C(=O)N2CCN(C3c4ccccc4CCc4ccccc43)CC2)c1` [ZS-361, N-[5-[4-(2-tricyclo[9.4.0.03,8]pentadeca-1(11),3(8),4,6,12,14-hexaenyl)piperazine-1-carbonyl]-3-pyridyl]acetamide], the IC50 in series [1] (Table 2, read-out: Enzyme IC50) worked out at 44 nM. Also, the EC50 was found to be 1180 nM in series [2] (setting [6]), 20 µg/mL (≈ 45.4 µM) in series [4] and 4320 nM in series [5]. Moreover, in series [3], the CC50 at 24 h was 34200 nM.
On the same counts, the results for `Cc1cncc(C(=O)N2CCN(C3c4ccccc4NC(=O)c4ccccc43)CC2)c1` (centres unmarked) [ZS-355, 11-[4-(5-methylpyridine-3-carbonyl)piperazin-1-yl]-5,11-dihydrobenzo[c][1]benzazepin-6-one] are 53 nM, 223 nM, 20 µg/mL (≈ 48.5 µM), 377 nM and over 39800 nM.
Consider `O=C(c1cncc(Br)c1)N1CCC(=C(c2ccccc2)c2ccccc2)CC1` [NZ-771, 3-bromo-5-[4-(diphenylmethylidene)piperidine-1-carbonyl]pyridine], for which the IC50 in series [1] (Table 2, read-out: Enzyme IC50) was found to be 250 nM. Moreover, the EC50 in series [2] (setting [6]) was 940 nM; in series [4], 20 µg/mL (≈ 46.2 µM); in series [5], over 9610 nM. For the same compound, the CC50 at 24 h in series [3] was over 39800 nM.
The corresponding values for `Cc1cncc(C(=O)N2CCN(C(c3ccccc3)c3cccc(Cl)c3)CC2)c1` (centres unmarked) [MKP-1272, 1-[(3-chlorophenyl)(phenyl)methyl]-4-(5-methylpyridine-3-carbonyl)piperazine] are 365 nM, 246 nM, 10 µg/mL (≈ 24.6 µM), 117 nM and 33600 nM.
Consider `Cc1cncc(C(=O)N2CCN(C(c3ccccc3)c3ccccc3)CC2)c1` [AA-596, (4-benzhydrylpiperazin-1-yl)(5-methylpyridin-3-yl)methanone], for which the 50% inhibitory concentration (IC50) in series [1] (Table 2, read-out: Enzyme IC50) turned out to be 130 nM. Besides, the EC50 is 360 nM in series [2] (setting [6]), 2.5 µg/mL (≈ 6.73 µM) in series [4] and over 9610 nM in series [5]. Besides, the CC50 at 24 h in series [3] was over 39800 nM.
On to `Cc1cncc(C(=O)N2CCN(C(c3ccccc3)c3cccc(C(F)(F)F)c3)CC2)c1` (centres unmarked) [MKP-1276, 1-(5-methylpyridine-3-carbonyl)-4-{phenyl[3-(trifluoromethyl)phenyl]methyl} piperazine], for which the concentration for half-maximal inhibition (IC50) in series [1] (Table 2, read-out: Enzyme IC50) turned out to be 211 nM. Further, the EC50 in series [2] (setting [6]) is 637 nM; in series [5] it was 3410 nM. The compound also displayed a 50% cytotoxic concentration (CC50) at 24 h in series [3] of 22900 nM.
`O=C(c1cncc2nc[nH]c12)N1CC2CCC(C1)N2C(c1ccccc1)c1ccccc1` [AA-642, (8-benzhydryl-3,8-diazabicyclo[3.2.1]octan-3-yl)(1H-imidazo[4,5-c]pyridin-7-yl)methanone] displayed a 50% inhibitory concentration (IC50) in series [1] (Enzyme IC50, Table 2) of 210 nM. In addition, the EC50 in series [2] (setting [7]) came to 1050 nM; in series [5], 3240 nM. The CC50 at 24 h in series [3] (setting [8]) was over 39800 nM.
`O=C(c1cncc2[nH]ccc12)N1CCN(C2c3ccccc3CS(=O)(=O)c3ccccc32)CC1` (centres unmarked) [NZ-809, [4-(5,5-dioxo-6,11-dihydrobenzo[c][1]benzothiepin-11-yl)piperazin-1-yl]-(1H-pyrrolo[2,3-c]pyridin-4-yl)methanone]: the concentration for half-maximal inhibition (IC50) is 43 nM in series [1] (Table 2, read-out: Enzyme IC50) and 15 nM in series [1] (setting [9]). In addition, the EC50 in series [2] (setting [10]) is 88 nM; in series [2] (setting [6]), 88 nM; in series [5] it was 111 nM. The CC50 at 24 h in series [3] is over 39800 nM.
Consider `O=C(c1cncc2cc[nH]c12)N1CCC(=C2c3ccccc3CS(=O)(=O)c3ccccc32)CC1` [NZ-804, [4-(5,5-dioxo-6H-benzo[c][1]benzothiepin-11-ylidene)-1-piperidyl]-(1H-pyrrolo[3,2-c]pyridin-7-yl)methanone], for which the IC50 in series [1] (Table 2, read-out: Enzyme IC50) was 30 nM; in series [1] (setting [9]), 9 nM. Also, the results for the EC50 in series [2] (setting [10]), in series [2] (setting [6]) and in series [5] were 15 nM, 15 nM and 162 nM, respectively. The compound also showed a CC50 at 24 h in series [3] of over 39800 nM.
